Where two headings read alike, the source gives them in different places. Marks after values point to notes of the source that are not given here.

The values below come from US11707440B2 (priority 2017, dated 2023).

The conditions of data set [1]: for Stock solution stability: stock solutions. From the text: This example provides an LC-MS/MS method for the determination of ketamine and norketamine in sodium heparin human plasma using ketamine-d4 and norketamine-d4 as the respective internal standards (IS).
For the next data set, the system named is MDD/TRD subjects. The note with it: 52-week safety study in MDD/TRD subjects (Berman et al., 2011); cited from earlier work.
Data set [2] can be described thus: Pharmacokinetics of intranasal esketamine in healthy subjects (Example 9). The note with it: for Metabolite/Parent Ratio AUClast / Metabolite/Parent Ratio AUC∞ / Metabolite/Parent Ratio tmax / AUClast / AUC∞ / Cmax / t1/2: mean; for tmax: median. The method, then: Pharmacokinetic blood samples for measurement of esketamine and noresketamine concentrations in plasma were collected from predose until up to 24 hours after each intranasal esketamine regimen on Day 1 of each period.
Blood samples (4 mL each) for determination of esketamine and noresketamine plasma concentrations were collected into the appropriate collection tube (e.g., Vacutainer®) at timepoints 0.00, 0.12, 0.20, 0.37, 0.53, 0.67, 0.83, 1.00, 1.25, 1.50, 2.00, 3.00, 4.00, 6.00, 9.00, 12.00, 18.00, and 24.00 h. The total amount of blood to be drawn for clinical laboratory tests and PK evaluations is approximately 327 mL.
Plasma samples were analyzed for esketamine and noresketamine concentrations using the validated, specific and sensitive liquid chromatography coupled to tandem mass spectrometry (LC-MS/MS) achiral method of Example 8.
Serial PK blood samples (4 mL each) were collected for a 24-hour period from each subject (Periods 1, 2, and 3). […] Statistical Methods 1.6.4.1. Sample Size
The following key parameters of esketamine and noresketamine in plasma were calculated using noncompartmental methods and actual sampling times: Cmax, tmax, AUClast, AUC∞, t1/2,λ, and λz.

Setting [3] is: after A: Esketamine 28 mg intranasal.
[4] abbreviates: after B: Esketamine 56 mg intranasal.
[5] abbreviates: after C: Esketamine 84 mg intranasal.
Setting [6] is: healthy subjects, 28, 56 and 84 mg.
[7] abbreviates: metabolite after A: Esketamine 28 mg intranasal.
Where [8] appears, read: metabolite after B: Esketamine 56 mg intranasal.
Setting [9] is: metabolite after C: Esketamine 84 mg intranasal.

For the molecule `CN[C@]1(c2ccccc2Cl)CCCCC1=O` [5-Ketamine], the “QC sample long-term storage stability” value in data set [1] (human plasma, −20° C.) was 707 days at −20 °C.
Regarding `OCCOCCN1CCN(C2=Nc3ccccc3Sc3ccccc32)CC1` [quetiapine], the “Discontinuation rate due to adverse events” value in the data set on MDD/TRD subjects is listed as 23.7%.
For `N[C@]1(c2ccccc2Cl)CCCCC1=O` [noresketamine], in data set [2] (setting [3]), the “Metabolite/Parent Ratio AUClast” value is recorded as 3.62, the “Metabolite/Parent Ratio AUC∞” value is 3.80^b and the “Metabolite/Parent Ratio tmax” value was determined as 1.96 h. In data set [2] (setting [4]), the “Metabolite/Parent Ratio AUClast” value was determined as 4.07, the “Metabolite/Parent Ratio AUC∞” value was 4.22^b and the “Metabolite/Parent Ratio tmax” value was 2.28 h. Also, in data set [2] (setting [5]), the “Metabolite/Parent Ratio AUClast” value is 4.32, the “Metabolite/Parent Ratio AUC∞” value is listed as 4.46^d and the “Metabolite/Parent Ratio tmax” value turned out to be 2.55 h. In data set [2] (setting [6]), the “AUC (AUClast and AUC∞) variability, range” value was 17.0% to 21.3; the “AUClast, mean ratio of noresketamine to esketamine, range” value is reported as 3.62 to 4.32; the “AUC∞, mean ratio of noresketamine to esketamine, range” value is 3.80 to 4.46; the “Cmax variability (percent coefficient of variation), range across treatment groups” value is 25.8% to 33.7. In data set [2] (setting [6]), the “Cmax, mean ratio of noresketamine to esketamine, range” value is reported as 1.96 to 2.55 and the “Mean t1/2, range” value was in the range of 7.48 to 7.74 h. Further, the “Median tmax, range across the 3 intranasal regimens” value in data set [2] (healthy subjects, 28, 56 and 84 mg intranasal esketamine) fell in the range of 1.25 to 1.5 h. Besides, in data set [2] (setting [7]), the AUClast worked out at 454 ng·h/mL, the “AUC∞” value was 508^ h * ng/mL, the Cmax is 92.8 ng/mL and the t1/2 worked out at 7.74 h. Besides, the tmax in data set [2] (setting [7]) was found to be 1.25 h. Besides, in data set [2] (setting [8]), the AUClast is 851 ng·h/mL, the “AUC∞” value is 924^c h * ng/mL, the Cmax stood at 154 ng/mL and the t1/2 is 7.71^c h. For the same molecule, the tmax in data set [2] (setting [8]) is reported as 1.50 h. Moreover, in data set [2] (setting [9]), the AUClast was 1287 ng·h/mL, the “AUC∞” value was 1392^b h * ng/mL, the Cmax worked out at 241 ng/mL and the t1/2 is 7.48^b h. Further, the tmax in data set [2] (setting [9]) was 1.50 h.
As for `NC1(c2ccccc2Cl)CCCCC1=O` (stereo not drawn) [Norketamine], the “QC sample freeze/thaw stability” value in data set [1] (freeze (−20° C.)/thaw (ice-water bath)) is reported as 3 freeze (−20° C.)/thaw (ice-water bath) cycles; in data set [1] (freeze (−20° C.)/thaw (room temperature)), 3 freeze (−20° C.)/thaw (room temperature) cycles. Also, in data set [1] (human plasma, room temperature), the “QC sample bench-top stability” value came out at 68.5 hours at room temp. Further, the “QC sample long-term storage stability” value in data set [1] (human plasma, −20° C.) came to 1552 days at −20 °C. The molecule also gave a Processed sample stability in data set [1] (room temperature) of 146.5 hours at room temperature. Besides, in data set [1] (room temperature and ice-water bath (0-4° C.)), the “Whole Blood Stability” value was 120 minutes at room temperature and in an ice-water bath. The “Stock solution stability (spike solutions)” value in data set [1] (spike solutions, −20° C.) was 610 days at −20 °C for ketamine/norketamine spike solutions. The Stock solution stability in data set [1] (room temperature under white light) stood at 6 h; in data set [1] (−20° C.), 15100 h.

As usually defined, the Cmax is the peak of the concentration-time curve.
